Experimental data taken from patent publication US7524853B2 (Solvay Pharmaceuticals B.V., priority 2003, dated 2009).

Assays:
Format in all cases: cell-based
[1] = molecular target: T1, 17β-hydroxysteroid dehydrogenase type 1 (17β-HSD type 1) (Homo sapiens, UniProt P14061); assay: Inhibition of 17β-HSD type 1 in MCF-7 cells stably expressing the isoenzyme (tritium labeled estrone conversion, HPLC); settings: MCF7, MCF-7 cells expressing 17β-HSD type 1, 2 nM tritium labeled estrone; for inhibition at 1 µM: 1 μM test compound, read-out: % Inhibition HSD1 1 μM; for inhibition at 10 µM: 10 μM test compound, read-out: % Inhibition HSD1 10 μM
T1 construct: expressed in transfected cells; host or cells: MCF-7
T1 sequence (P14061 1-328): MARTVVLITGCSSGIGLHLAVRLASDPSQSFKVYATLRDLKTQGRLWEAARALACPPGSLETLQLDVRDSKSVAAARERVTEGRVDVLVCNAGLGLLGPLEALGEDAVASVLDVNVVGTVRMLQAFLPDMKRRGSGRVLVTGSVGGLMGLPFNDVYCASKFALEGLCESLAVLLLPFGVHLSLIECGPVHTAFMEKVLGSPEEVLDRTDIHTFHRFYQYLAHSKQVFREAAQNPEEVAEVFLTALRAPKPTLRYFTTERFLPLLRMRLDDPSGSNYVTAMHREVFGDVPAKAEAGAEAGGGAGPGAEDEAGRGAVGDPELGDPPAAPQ
In short: (§1)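 Each isoenzyme was stably expressed in its own MCF-7 line, and cells were incubated in growth medium with test compound and 2 nM tritiated substrate: estrone (type 1), estradiol (type 2), androstenedione (type 3). Medium was sampled after a fixed time, TCA-stopped, and analysed by HPLC-flow scintillation; inhibition versus compound-free control, two compound concentrations.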

[2] = molecular target: T2, 17β-hydroxysteroid dehydrogenase type 3 (17β-HSD type 3) (Homo sapiens, UniProt P37058); assay: Inhibition of 17β-HSD type 3 in MCF-7 cells stably expressing the isoenzyme (tritium labeled androstenedione conversion, HPLC); settings: MCF7, MCF-7 cells expressing 17β-HSD type 3, 2 nM tritium labeled androstenedione; for inhibition at 1 µM: 1 μM test compound, read-out: % Inhibition HSD3 1 μM; for inhibition at 10 µM: 10 μM test compound, read-out: % Inhibition HSD3 10 μM
T2 construct: expressed in transfected cells; host or cells: MCF-7
T2 sequence (P37058 1-310): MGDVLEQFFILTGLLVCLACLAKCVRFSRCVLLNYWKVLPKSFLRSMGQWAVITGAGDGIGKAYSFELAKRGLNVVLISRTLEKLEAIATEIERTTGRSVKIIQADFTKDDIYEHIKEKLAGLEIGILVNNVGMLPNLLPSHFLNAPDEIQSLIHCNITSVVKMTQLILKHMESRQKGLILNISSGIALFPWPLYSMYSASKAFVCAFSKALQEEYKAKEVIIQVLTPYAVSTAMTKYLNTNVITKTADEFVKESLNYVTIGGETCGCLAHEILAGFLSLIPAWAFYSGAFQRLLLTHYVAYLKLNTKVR
In short: as §1

[3] = molecular target: T3, 17β-hydroxysteroid dehydrogenase type 2 (17β-HSD type 2) (Homo sapiens, UniProt P37059); assay: Inhibition of 17β-HSD type 2 in MCF-7 cells stably expressing the isoenzyme (tritium labeled estradiol conversion, HPLC); settings: MCF7, MCF-7 cells expressing 17β-HSD type 2, 2 nM tritium labeled estradiol; for inhibition at 1 µM: 1 μM test compound, read-out: % Inhibition HSD2 1 μM; for inhibition at 10 µM: 10 μM test compound, read-out: % Inhibition HSD2 10 μM
T3 construct: expressed in transfected cells; host or cells: MCF-7
T3 sequence (P37059 1-387): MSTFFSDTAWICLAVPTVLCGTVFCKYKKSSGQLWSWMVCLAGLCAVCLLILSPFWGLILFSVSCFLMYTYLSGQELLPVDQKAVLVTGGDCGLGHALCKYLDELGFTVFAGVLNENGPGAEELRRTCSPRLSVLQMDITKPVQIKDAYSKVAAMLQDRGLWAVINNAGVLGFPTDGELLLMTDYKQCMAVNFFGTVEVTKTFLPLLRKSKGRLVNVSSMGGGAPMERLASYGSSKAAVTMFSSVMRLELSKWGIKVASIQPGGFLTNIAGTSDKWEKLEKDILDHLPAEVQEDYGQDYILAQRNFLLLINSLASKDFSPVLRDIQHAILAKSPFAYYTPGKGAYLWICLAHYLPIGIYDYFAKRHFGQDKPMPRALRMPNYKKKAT
In short: as §1

inhibition at 1 µM [1] [%] | inhibition at 10 µM [1] [%] | inhibition at 1 µM [2] [%] | inhibition at 10 µM [2] [%] | inhibition at 1 µM [3] [%] | inhibition at 10 µM [3] [%] | Structure (SMILES)
21.5 | 21.6 | 14.4 | 22.3 | 25.4 | 14.2 | COc1cc(-c2nc3sc4c(c3c(=O)n2Cc2ccccc2)CC(C)CC4=O)cc(OC)c1OC (stereo not drawn) [No. 688, 3-Benzyl-6-methyl-2-(3,4,5-trimethoxyphenyl)-6,7-dihydro-3H,5H-benzo[4,5]thieno[2,3-d]pyrimidin-4,8-dione]
7.7 | 5.7 | -2.4 | 17.4 | -3 | 5.7 | COc1cc(-c2nc3sc4c(c3c(=O)n2Cc2ccccc2)CC(C)C(Br)C4=O)c(Br)c(OC)c1OC (stereo not drawn) [No. 689, 3-Benzyl-7-bromo-6-methyl-2-(2-bromo-3,4,5-trimethoxyphenyl)-6,7-dihydro-3H-benzo[4,5]thieno[2,3-d]pyrimidin-4,8-dione]
17.3 | 19.2 | -2.7 | 6.4 | 14.2 | 23.5 | COc1cc(-c2nc3sc4c(O)cc(C)cc4c3c(=O)n2Cc2ccccc2)c(Br)c(OC)c1OC [No. 690, 3-Benzyl-2-(2-bromo-3,4,5-trimethoxyphenyl)-8-hydroxy-6-methyl-3H-benzo[4,5]thieno[2,3-d]pyrimidin-4-one]
7 | 22.6 | -5.3 | 11.9 | 2.1 | -6.3 | CCCCn1c(-c2cc(OC)c(OC)c(OC)c2)nc2sc3c(c2c1=O)CC(C)CC3 (stereo not drawn) [No. 691, 3-Butyl-6-methyl-2-(3,4,5-trimethoxyphenyl)-5,6,7,8-tetrahydro-3H-benzo[4,5]thieno[2,3-d]pyrimidin-4-one]
18 | 28.6 | 9.8 | 35 | 12.7 | 21 | CCCCn1c(-c2cc(OC)c(OC)c(OC)c2)nc2sc3c(c2c1=O)CC(C)CC3=O (stereo not drawn) [No. 692, 3-Butyl-6-methyl-2-(3,4,5-trimethoxyphenyl)-6,7-dihydro-3H,5H-benzo[4,5]thieno[2,3-d]pyrimidin-4,8-dione]
15 | 5.7 | 5.2 | 16.8 | 18.1 | 18.2 | CCCCn1c(-c2cc(OC)c(OC)c(OC)c2Br)nc2sc3c(c2c1=O)CC(C)C(Br)C3=O (stereo not drawn) [No. 693, 3-Butyl-7-bromo-6-methyl-2-(2-bromo-3,4,5-trimethoxyphenyl)-6,7-dihydro-3H-benzo[4,5]thieno[2,3-d]pyrimidin-4,8-dione]
12.1 | 10.9 | 5.8 | 21.1 | 6.2 | 15.8 | CCCCn1c(-c2cc(OC)c(OC)c(OC)c2Br)nc2sc3c(O)cc(C)cc3c2c1=O [No. 694, 3-Butyl-2-(2-bromo-3,4,5-trimethoxyphenyl)-8-hydroxy-6-methyl-3H-benzo[4,5]thieno[2,3-d]pyrimidin-4-one]
5.9 | 7.3 | 7.4 | 8.5 | 16.1 | 19.6 | CCCCn1c(-c2cc(OC)c(OC)c(O)c2Br)nc2sc3c(O)c(Br)c(C)cc3c2c1=O [No. 699, 7-Bromo-2-(2-bromo-3-hydroxy4,5-dimethoxyphenyl)-3-butyl-8-hydroxy-6-methyl-3H-benzo[4,5]thieno[2,3-d]pyrimidin-4-one]
